# Experimental data reported in patent publication US20250276994A1, “CAP ANALOG FOR THE 5'-END OF EUKARYOTIC MESSENGER RNAS” (WESTFÄLISCHE WILHELMS-UNIVERSITÄT, priority 2021, published 2025).
# Legend:
# [1] = test system: HeLa cells; test: Translation and irradiation in HeLa cells of capped GLuc-mRNA (luminescence); format: cell-based
# Experimental: HeLa cells were transferred to a 96 well plate 20 h prior transfection. 30.000 cells/well were cultivated in growth Media (MEM, 10% FCS, 1% glutamine, 1% Penicillin, 1% Streptomycine, […] non-essential aminoacids). For transfection the growth media was exchanged for MEM-media with 0.6 μL Metafectene® Pro (0.3 μL) and 100 ng mRNA was added per well. 6 h after transfection of the cells the media was exchange by MEM-media, followed by irradiation and another MEM-media exchange. After 24 h post transfection the supernatant in the wells was used for further luminescence measurements. Values of the ApppG capped mRNA represent cap independent translation and were therefore subtracted from the other values.
# In cell translation and irradiation in cell culture of mammalian HeLa cells was performed as described above. GLuc mRNA capped with the photocleavable 5′-cap analog of formula (12) (“DMNB”) was used and the commercial non-modified cap analog denoted “m^7GpppG” (Jena Bioscience) was used as a control. HeLa cells were either transfected with the DMNB-m^7GpCH2ppG capped mRNA (irradiated and non-irradiated before transfection) or with the natural capped mRNA (irradiated and non-irradiated before transfection). Irradiation of the mRNA containing the natural cap was performed (5 V, 600 mA) with 365 nm for 30 seconds to evaluate the resulting influence on translational efficiency. DMNB-m^7GpCH2ppG capped mRNA was irradiated in the same way or with 405 nm for 60 seconds. The ApppG capped mRNA, which is not recognized by the translation initiation factor served as negative control, which is substracted from the other samples as it represents background activity. The values were normalized to the non-irradiated m^7GpppG capped sample (100%). The experiment was performed in triplicates.
# The luminescence measurement of cell culture media after translation in cells transfected with modified and non-modified GLuc mRNA was repeated using irradiation with 365 nm/405 nm for different periods of time. HeLa cells were either transfected with the GLuc mRNA capped with the photocleavable 5′-cap analog of formula (12) denoted “DMNB-m^7GpCH2ppG capped mRNA” or with the natural m^7GpppG capped mRNA. Cells transfected with the natural capped mRNA were irradiated (5 V, 600 mA) with 365 nm/405 nm for 30 s or 60 s to evaluate the resulting influence on translational efficiency. Cells transfected with DMNB-m^7GpCH2ppG capped mRNA were irradiated in the same way. The ApppG capped mRNA, which is not recognized by the translation initiation factor served as negative control, which is substracted from the other samples as it represents background activity. The values were normalized to the non-irradiated cells with m^7GpppG capped mRNA (100%). The experiment was performed in triplicates.
# Luminescence measurement of cell culture media after translation of transfected modified and non-modified GLuc mRNA in cells. HeLa cells were either transfected with the NPOM-m^7GpCH2ppG capped mRNA or with the natural m^7GpppG capped mRNA. Cells transfected with the natural capped mRNA were irradiated (5 V, 600 mA) with 365 nm/405 nm for different periods of time to evaluate the resulting influence on translational efficiency. Cells transfected with NPOM-m^7GpCH2ppG capped mRNA were irradiated in the same way. The ApppG capped mRNA, which is not recognized by the translation initiation factor served as negative control, which is substracted from the other samples as it represents background activity. […]
# [2] = target: T1, T7 RNA polymerase (Escherichia phage T7, UniProt P00573); test: In vitro transcription of GLuc mRNA with cap analogs, gel analysis; format: biochemical
# T1 construct: purchased Thermo Scientific
# T1 sequence (P00573 whole entry): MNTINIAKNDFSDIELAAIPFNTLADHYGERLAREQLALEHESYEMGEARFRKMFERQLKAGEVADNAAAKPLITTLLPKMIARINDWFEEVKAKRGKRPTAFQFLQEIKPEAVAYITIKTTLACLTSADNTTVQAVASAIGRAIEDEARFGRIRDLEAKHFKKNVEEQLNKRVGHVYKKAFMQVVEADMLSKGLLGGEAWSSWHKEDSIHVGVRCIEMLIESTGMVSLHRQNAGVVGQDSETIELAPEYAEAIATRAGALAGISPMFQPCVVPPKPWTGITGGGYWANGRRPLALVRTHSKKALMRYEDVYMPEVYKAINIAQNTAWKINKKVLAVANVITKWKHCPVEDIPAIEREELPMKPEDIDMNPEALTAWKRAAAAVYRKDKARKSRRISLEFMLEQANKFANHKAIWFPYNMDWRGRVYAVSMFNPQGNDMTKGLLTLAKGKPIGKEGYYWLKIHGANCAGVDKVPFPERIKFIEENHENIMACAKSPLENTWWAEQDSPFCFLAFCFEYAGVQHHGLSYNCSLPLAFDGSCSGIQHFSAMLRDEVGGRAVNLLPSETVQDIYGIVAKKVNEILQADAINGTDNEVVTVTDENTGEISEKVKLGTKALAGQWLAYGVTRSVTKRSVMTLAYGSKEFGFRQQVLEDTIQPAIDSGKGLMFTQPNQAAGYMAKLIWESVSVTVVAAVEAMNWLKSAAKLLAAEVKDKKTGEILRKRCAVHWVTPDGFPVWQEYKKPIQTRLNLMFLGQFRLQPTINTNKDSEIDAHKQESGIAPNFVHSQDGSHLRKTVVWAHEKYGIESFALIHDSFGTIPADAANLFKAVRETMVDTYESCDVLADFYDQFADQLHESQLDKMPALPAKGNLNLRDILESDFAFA
# Experimental: First, the DNA sequence coding for eGFP, Firefly luciferase (FLuc) or Gaussia luciferase (GLuc) mRNAs were amplified from pmRNA-vectors containing the respective sequence. After purification (NucleoSpin Gel and PCR Clean-up, Macherey-Nagel), the resulting linear dsDNA was used as template (200 ng) for in vitro T7 transcription performed in transcription buffer (40 mM Tris/HCl, 25 mM NaCl, 8 mM MgCl2, 2 mM spermidine(HCl)3) by adding either a A/C/UTP (0.5 mM) mix or a mix with modified nucleotides (A/m^5C/N^1-methylpseudo-UTP) (0.5 mM), GTP (0.25 mM), GpppG, m7GpppG, ApppG, DMNB or NPOM cap analog (1 mM), T7 RNA polymerase (50 U) (Thermo Scientific) and pyrophosphatase (0.1 U) (Thermo Scientific) for 4 h at 37° C. Remaining DNA template was digested in presence of 2 U DNase I for 1 h at 37° C. and then mRNAs were purified using the RNA Clean & Concentrator™-5 Kit (Zymo Research). To digest non-capped RNAs, 10 U of the RNA 5′-polyphosphatase (Epicentre) as well as the supplied reaction buffer were added to purified mRNAs. After an incubation period of 30 min at 37° C., 0.5 U of the 5′-3′ exoribonuclease XRN1 (NEB) and MgCl2 (5 mM) were added. The reaction mixture was incubated for 60 min at 37° C. Subsequently, capped mRNAs were purified using the RNA Clean & Concentrator™-5 Kit (Zymo Research).
# The photocleavable 5′-cap analogs of formulas (12) and (18) were used for in vitro transcription of GLuc mRNA as described above and analysed via agarose gel electrophoresis.
# “M” denotes Riboruler low range RNA ladder.
# [3] = test system: Reticulocyte Lysate; test: In vitro translation of capped FLuc-mRNA and luminescence measurement; format: biochemical
# Experimental: In vitro translation was performed using a eukaryotic cell free protein expression kit from Reticulocyte Lysate (Invitrogen). Experiments were performed in 12.5 μL total volume containing 20 ng of the corresponding FLuc-mRNAs, 50 μM L-methionine and 150 mM potassium acetate. Samples were mixed with 8.5 μL of the reticulocyte lysate and incubated for 90 min at 30° C. Afterwards, 2 μL of the respective translation mix were used in subsequent luminescence measurement. The translation efficiency of the reporter mRNAs was assessed in a luciferase assay using Beetle-juice Luciferase Assay Firefly (pjk). Luciferase activity was determined by adding 50 μL freshly prepared substrate solution to the translation mixture. Luminescence was monitored using a Tecan Infinite® m1000pro microplate reader with an acquisition time of 3 s (duration of signal acquisition).
# The photocleavable 5′-cap analog of formula (7) was used for in vitro transcription to make FLuc mRNA as described above. This was used for in vitro translation and Luminescence measurement as described above. The commercial non-modified cap analog denoted “m^7GpppG” (Jena Bioscience) was used as positive control. Samples were irradiated for 30 seconds. The ApppG capped mRNA, which is not recognized by the translation initiation factor served as negative control, which is substracted from the other samples as it represents background activity. The experiment was performed in quadruplicates. The FLuc-mRNA capped with the photocleavable 5′-cap analog of formula (7) is denoted “ONB”.
# The in vitro translation assay and luminescence measurement was performed as described above using the photocleavable 5′-cap analog of formula (12). The capped mRNA was denoted “DMNB-m^7GpCH2ppG capped FLuc-mRNA”. Samples were irradiated for 30 seconds (365 nm) or 60 seconds (405 nm). The commercial non-modified cap analog denoted “m^7GpppG” (Jena Bioscience) was used as positive control and all other samples were normalized to it. The ApppG capped mRNA, which is not recognized by the translation initiation factor served as negative control, which is substracted from the other samples as it represents background activity. The experiment was performed in triplicates, except *DMNB-m7GpCH2ppG (365 nm) which was a single determination.
# The in vitro translation assay in reticulocyte lysate and luminescence measurement was performed as described above using m^7GpppG capped FLuc-mRNA caged with the photocleavable 5′-cap analog of formulas (22) and (25) (denoted “DMNB m^7GpppG” and “NPOM m^7GpppG”). Samples were irradiated for 30 seconds at 365 nm. The ApppG capped mRNA, which is not recognized by the translation initiation factor served as negative control, which was substracted from the other samples as it represents background activity. The values were normalized to the non-irradiated sample with m^7GpppG capped mRNA (100%). The experiment was performed in triplicates.
# The in vitro translation assay in reticulocyte lysate and luminescence measurement was performed as described above using m^7GpppG capped FLuc-mRNA with modified nucleotides m^5C and N^1methyl-pseudouridine caged with the photocleavable 5′-cap analog of formulas (22) and (25) (denoted “DMNB m^7GpppG mod” and “NPOM m^7GpppG mod”). Samples were irradiated for 30 seconds at 365 nm. The ApppG capped mRNA, which is not recognized by the translation initiation factor served as negative control, which was substracted from the other samples as it represents background activity. The values were normalized to the non-irradiated sample with m^7GpppG capped mRNA (100%). The experiment was performed in triplicates.
# [4] = Irradiation of caged nucleosides, conversion estimated by HPLC; format: physicochemical; conditions: 450 nm; H2O:ACN (1:1)
# Experimental: Conversions from caged compounds to uncaged compounds were estimated by integrating the peaks of a UV-spectrum that resulted from the HPLC analysis (Agilent infinity 1260).
# When irradiating isolated N2-modified compounds, a final volume of 10 μL in double distilled water was irradiated using a LED (λmax=365 nm/405 nm/420 nm) and then analyzed by RP-HPLC.
# A 500 μM solution of the compound 15, nitropiperonylmethyl fused via a carbamate moiety to guanosine (denoted “NPOM guanosine” or “caged guanosine”), in water/acetone/acetonitrile was irradiated in a 10 μL volume with either 405 nm for 20 s, 40 s or 60 s or with 365 nm for 5 s, 10 s or 20 s, respectively, using a LED power (input 3W and output 147 mW/cm^2). HPLC analysis was performed as described above.
# Samples of the adenosine fused via a carbamate moiety to 7-(diethylamino)-4-(hydroxymethyl)-coumarin (DEACM) were irradiated with 450 nm. […] The peak at 21.1 min corresponds to the obtained compound and the peaks at 11.1 and 21.9 min correspond to the photo-cleavage products adenosine and DEACM-OH, respectively.
structure (smiles),measurement,setting,value
"CC(OC(=O)Nc1nc2c(c(=O)[nH]1)[n+](C)cn2[C@@H]1O[C@H](COP(=O)(O)CP(=O)(O)OP(=O)(O)OC[C@H]2O[C@@H](n3cnc4c(=O)[nH]c(N)nc43)C(O)C2O)C(O)C1O)c1cc2c(cc1[N+](=O)[O-])OCO2 (stereo partly drawn) [compound 18, P1-(N^2-(1-(6-nitrobenzo[d][1,3]dioxol-5-yl)ethyl)oxycarbonyl-7-methylguanosin-5′-yl)-P3-guanosin-5′-yl 1,2-methylenetriphosphate]",translation in cells (luminescence) after irradiation of the cells,"[1]; GLuc mRNA, transfected cells irradiated 15 s, 25 s or 30 s, increase at 365 nm",significant increase of translation
same,incorporation of cap analog into RNA,[2],incorporated into the RNA
"C[n+]1cn([C@@H]2O[C@H](COP(=O)(O)CP(=O)(O)OP(=O)(O)OC[C@H]3O[C@@H](n4cnc5c(=O)[nH]c(N)nc54)C(O)C3O)C(O)C2O)c2nc(NC(=O)OCc3ccccc3[N+](=O)[O-])[nH]c(=O)c21 (stereo partly drawn) [compound 7, P1-(N^2-(2-Nitrobenzyl)oxycarbonyl-7-methylguanosin-5′-yl)-P3-guanosin-5′-yl 1,2-methylenetriphosphate]",translation efficiency (luminescence of cell supernatant),"[1]; differently capped GLuc mRNAs, normalized to m^7GpppG, single determination",impacts the translation efficiency in an inhibiting way
same,in vitro translation (luminescence) after irradiation,"[3]; capped FLuc-mRNA, irradiated for 30 seconds",partially restored
same,"in vitro translation (luminescence), non-irradiated","[3]; capped FLuc-mRNA, non-irradiated, normalized to m^7GpppG capped mRNA",successfully inhibited to a high degree
CCN(CC)c1ccc2c(COC(=O)Nc3ncnc4c3ncn4[C@@H]3O[C@H](CO)[C@H](O)C3O)cc(=O)oc2c1 (stereo partly drawn),photo-cleavage upon irradiation (HPLC),[4],photocleavable
"Cn1c[n+]([C@@H]2O[C@H](COP(=O)(O)OP(=O)([O-])OP(=O)(O)OC[C@H]3O[C@@H](n4cnc5c(=O)[nH]c(N)nc54)[C@H](O)[C@@H]3O)[C@@H](O)[C@H]2O)c2nc(N)[nH]c(=O)c21 [m^7GpppG, reference compound]",incorporation of cap analog into RNA,[2],incorporated into the RNA
"CC(OC(=O)Nc1nc2c(c(=O)[nH]1)[n+](C)cn2[C@@H]1O[C@H](COP(=O)(O)OP(=O)(O)OP(=O)(O)OC[C@H]2O[C@@H](n3cnc4c(=O)[nH]c(N)nc43)C(O)C2O)C(O)C1O)c1cc2c(cc1[N+](=O)[O-])OCO2 (stereo partly drawn) [compound 25, P1-(N^2-(1-(6-nitrobenzo[d][1,3]dioxol-5-yl)ethyl)oxycarbonyl-7-methylguanosin-5′-yl)-P3-guanosin-5′-yl triphosphate]",in vitro translation (luminescence) after irradiation,"[3]; capped FLuc-mRNA with modified nucleotides m^5C and N^1methyl-pseudouridine, 30 seconds at 365 nm",marked increase of translation
same,in vitro translation (luminescence) after irradiation,"[3]; capped FLuc-mRNA, regular nucleotides, 30 seconds at 365 nm",marked increase of translation
